The target in one data set is T1, Human AMPK α2β2γ1 (Homo sapiens, UniProt O43741+P54646).
T1 construct: The full length cDNAs of human AMPK β2 (NM_005399.3) and human AMPK α2 (NM_006252.3) were inserted; the full length cDNA of human AMPK γ1 (NM_002733.3) had been inserted into pET28b(+); 6xHis (N); made in house; host or cells: Escherichia coli BL21 CodonPlus (DE3)-RIL
Put plainly: Test Example 2: evaluation of activators of AMP-activated protein kinase (mobility-shift assay, FL-Peptide 7). It counts as biochemical. Conditions: human AMPK α2β2γ1 phosphorylated with CaMKK2; for EC150 (compound concentration showing 150% relative to the control (100%)): 25° C., 2 hours, 1% DMSO; for Emax: control = 100%, read-out: Emax (maximum rate of increase in activity within the measurement range). As for the experimental part: The full length cDNAs of human AMPK β2 (NM_005399.3) and human AMPK α2 (NM_006252.3) were inserted into the MCS1 and MCS2 of the pETDuet-1 vector to prepare a human AMPK β2 and human AMPK α2 (6× His tag at the 5′ terminus) expressing plasmid. The plasmid was contransfected with an expression plasmid, in which the full length cDNA of human AMPK γ1 (NM_002733.3) had been inserted into pET28b(+), into BL21 CodonPlus (DE3)-RIL to obtain an expression strain. The expression strain was cultured in TB medium, followed by induction with 0.5 mM IPTG, and cultured at 25° C. for 3 hours and then harvested. After ultrasonication, supernatant was collected and applied to Histrap FF column (GE) and RESOUECE Q column (GE) to prepare 12.5 mg of purified sample containing three types of subunit from 1.8 L of broth.
An expression vector, in which the full length cDNA of human CAMKK β (NM_172226.1) had been inserted into pGEX-6P-3, was transfected into BL21 Star (DE3). The expression strain was cultured in TB medium, followed by induction with 0.5 mM IPTG, and cultured at 25° C. for 3 hours and then harvested. After ultrasonication, supernatant was collected and applied to GSTrap FF column (GE) to prepare 14 mg of GST-fused CAMKK […] from 720 ml of broth.
Thus, phosphorylation treatment was carried out as pretreatment.
Human AMPK α2β2γ1 in an amount to give a conversion rate of approximately 10% by reaction for 2 hours, and CaMKK2 in an amount capable of sufficiently imparting activity to AMPK for one hour were mixed in a buffer solution consisting of a 50 mM HEPES-NaOH buffer solution (pH 7.0), 100 mM NaCl, 5 mM magnesium chloride, 0.1% bovine serum albumin, 0.2 mM sodium orthovanadate(V), 1 mM ethylene glycol-bis(2-aminoethyl ether)-N,N,N′,N′-tetraacetic acid (EGTA), 5 mM disodium β-glycerophosphate, 1 mM dithiothreitol and 0.2 mM ATP, and the obtained liquid was left to stand at 25° C. for 1 to 1.5 hours to sufficiently phosphorylate AMPK.
After that, to the enzyme liquid, which had been subjected to phosphorylation treatment, a compound dissolved in DMSO was added so as to have a 1% DMSO concentration. The obtained liquid was left to stand for 10 minutes.
To the liquid, a substrate solution consisting of a 50 mM HEPES-NaOH buffer solution (pH 7.0), 100 mM NaCl, 10 mM magnesium chloride, 0.1% bovine serum albumin, 0.2 mM sodium orthovanadate(V), 1 mM ethylene glycol-bis(2-aminoethyl ether)-N,N,N′,N′-tetraacetic acid (EGTA), 5 mM disodium β-glycerophosphate, 2 mM dithiothreitol, 0.4 mM ATP and 3 μM FL-Peptide 7 (manufactured by Caliper Life Sciences, Inc.) was added in equal amount (10 μl in total). The obtained liquid was allowed to react at 25° C. for 2 hours, and 10 μl of 20 mM EDTA was then added thereto to stop the reaction.
To detect phosphorylated fluorescent substrates, the reaction liquid was applied to a measuring device, LabChip EZ Reader II manufactured by Caliper Life Science, Inc., for detecting fluorescence by using differences in mobility due to differences in charge. The setting conditions for the device were pressure, −1.5 PSI; upstream voltage, −2250 V; downstream voltage, −400 V; post sample buffer sip time, 40 seconds; final delay, 120 seconds; and peak order, Product First.
A conversion rate was calculated from the peak heights of the resulting substrate and product. The conversion rate when not containing a compound was used as a control, and a concentration dependent curve was made by plotting the rate of increase in activity to the control at each concentration of a compound. The compound concentration showing 150% relative to the control (100%) was used as the EC 150 value, and the maximum rate of increase in activity within the measurement range was used as Emax.

T1 sequence (P54646 whole entry): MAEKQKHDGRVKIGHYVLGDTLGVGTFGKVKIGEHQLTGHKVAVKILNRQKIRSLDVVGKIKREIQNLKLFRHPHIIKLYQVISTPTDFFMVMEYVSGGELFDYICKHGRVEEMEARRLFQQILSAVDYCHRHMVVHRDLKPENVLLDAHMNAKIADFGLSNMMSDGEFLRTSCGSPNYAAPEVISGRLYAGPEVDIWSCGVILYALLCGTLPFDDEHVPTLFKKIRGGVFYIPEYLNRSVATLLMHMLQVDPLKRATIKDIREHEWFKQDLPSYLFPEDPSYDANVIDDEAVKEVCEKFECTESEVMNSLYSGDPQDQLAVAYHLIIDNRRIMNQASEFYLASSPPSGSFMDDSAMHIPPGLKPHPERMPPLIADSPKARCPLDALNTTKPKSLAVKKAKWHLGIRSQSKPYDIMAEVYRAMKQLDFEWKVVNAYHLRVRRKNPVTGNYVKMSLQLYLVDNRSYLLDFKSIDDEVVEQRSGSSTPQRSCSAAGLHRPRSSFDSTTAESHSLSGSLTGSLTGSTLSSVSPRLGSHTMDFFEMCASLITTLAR
T1 sequence (O43741 whole entry): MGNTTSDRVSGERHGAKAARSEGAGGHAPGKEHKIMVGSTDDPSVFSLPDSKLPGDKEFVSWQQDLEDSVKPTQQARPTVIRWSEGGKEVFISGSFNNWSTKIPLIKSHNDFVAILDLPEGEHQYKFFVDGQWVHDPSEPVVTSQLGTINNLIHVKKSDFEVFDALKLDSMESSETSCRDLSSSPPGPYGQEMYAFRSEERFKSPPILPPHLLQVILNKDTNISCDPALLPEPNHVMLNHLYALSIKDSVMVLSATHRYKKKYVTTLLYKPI
T1 sequence (P54619 whole entry partner): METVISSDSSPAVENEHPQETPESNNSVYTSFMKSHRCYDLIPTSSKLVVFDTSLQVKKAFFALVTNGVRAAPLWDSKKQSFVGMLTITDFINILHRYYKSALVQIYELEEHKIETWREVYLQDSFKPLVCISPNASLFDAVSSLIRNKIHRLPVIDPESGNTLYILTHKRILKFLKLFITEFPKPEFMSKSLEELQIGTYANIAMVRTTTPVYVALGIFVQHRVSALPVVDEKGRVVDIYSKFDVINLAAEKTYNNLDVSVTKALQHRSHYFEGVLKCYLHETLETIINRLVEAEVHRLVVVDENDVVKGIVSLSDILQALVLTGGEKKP

With `Cc1ccc(Oc2nc3nc(-c4ccc(N5CCOCC5)cc4)c(Cl)cc3[nH]2)cc1C(=O)O` [A−1, reference compound], at Human AMPK α2β2γ1, the “EC150 (compound concentration showing 150% relative to the control (100%))” value worked out at 130 nM and the Emax turned out to be 394%. On the same counts, the results for `Cc1ccc(Oc2[nH]c3cc(Cl)c(-c4ccc(N5CCOCC5)cc4)cc3c2C#N)cc1C(=O)O` [Compound I-1-6] are 76 nM and 618%. For the molecule `N#Cc1c(O[C@@H]2CO[C@H]3[C@@H]2OC[C@H]3O)[nH]c2cc(Cl)c(-c3ccc(C4=CCC(C(=O)O)CC4)cc3)cc12` (stereo partly shown) [Compound I-1-8], at Human AMPK α2β2γ1, the “EC150 (compound concentration showing 150% relative to the control (100%))” value amounted to 39 nM and the maximum response (Emax) amounted to 580%. In the same order, the values of `N#Cc1c(O[C@@H]2CO[C@H]3[C@@H]2OC[C@H]3O)[nH]c2cc(Cl)c(-c3ccc(C4=CCN(C(=O)CO)CC4)cc3)cc12` [Compound I-1-9] are 20 nM and 559%. In the same order, the values of `CC(=O)NC/C=C/c1ccc(-c2cc3c(C#N)c(O[C@@H]4CO[C@H]5[C@@H]4OC[C@H]5O)[nH]c3cc2Cl)cc1` [Compound I-2-9] are 34 nM and 503%. In the same order, the values of `N#Cc1cc2[nH]c(O[C@@H]3CO[C@H]4[C@@H]3OC[C@H]4O)c(C#N)c2cc1-c1ccc(N2CCOCC2)cc1` [Compound I-2-17] are 98 nM and 587%. As to `CC(=O)NC(C)(C)c1ccc(Oc2cc3nc(-c4c(F)cc(N5CCOCC5)cc4F)ccc3[nH]2)cc1` [Compound I-3-9], on Human AMPK α2β2γ1, the “EC150 (compound concentration showing 150% relative to the control (100%))” value is listed as 39 nM and the maximal response (Emax) came out at 446%. In the same order, the values of `O[C@@H]1CO[C@H]2[C@@H]1OC[C@H]2Oc1cc2nc(-c3ccc(N4CCOCC4)cc3)c(Cl)cc2[nH]1` [Compound I-3-15] are 1.9 nM and 559%. As to `O[C@@H]1CO[C@H]2[C@@H]1OC[C@H]2Oc1cc2nc(-c3ccc(-c4ccccc4)cc3)c(Cl)cc2[nH]1` [Compound I-3-18], at Human AMPK α2β2γ1, the “EC150 (compound concentration showing 150% relative to the control (100%))” value stood at 4.1 nM and the Emax came to 489%. In the same order, the values of `O=C(O)C1CC=C(c2ccc(-c3nc4cc(O[C@@H]5CO[C@H]6[C@@H]5OC[C@H]6O)[nH]c4cc3Cl)cc2)CC1` (stereo partly shown) [Compound I-3-21] are 0.21 nM and 787%.

Take `CC(C)(C(=O)O)[C@H]1CC[C@H](Oc2cc3nc(-c4ccc(N5CCOCC5)cc4)c(Cl)cc3[nH]2)CC1` [Compound I-3-22]: on Human AMPK α2β2γ1, the “EC150 (compound concentration showing 150% relative to the control (100%))” value is on record as 120 nM and the Emax came to 264%. On the same counts, the results for `O[C@@H]1CO[C@H]2[C@@H]1OC[C@H]2Oc1cc2nc(-c3c(F)cc(N4CCOCC4)cc3F)c(F)cc2[nH]1` [Compound I-3-24] are 8.8 nM and 729%.

Consider `CC(C)(CO)C(=O)N1CCC(Oc2cc3nc(-c4ccc(N5CCOCC5)cc4)c(Cl)cc3[nH]2)CC1` [Compound I-3-28], for which, on Human AMPK α2β2γ1, the “EC150 (compound concentration showing 150% relative to the control (100%))” value stood at 54 nM and the Emax is 510%. In the same order, the values of `O[C@@H]1CO[C@H]2[C@@H]1OC[C@H]2Oc1cc2nc(-c3c(F)cc(C4=CCOCC4)cc3F)ccc2[nH]1` [Compound I-3-32] are 2.6 nM and 661%. In the case of `Clc1cc2[nH]c(O[C@@H]3CO[C@@H]4CCO[C@@H]43)cc2nc1-c1ccc(N2CCOCC2)cc1` [Compound I-3-37], in “Phototoxicity test”, the phototoxicity test entry was “negative”. For `CC(C)(CO)C(=O)N1CCC(Oc2cc3nc(-c4ccc(C5=CCC(C(=O)O)CC5)cc4)c(Cl)cc3[nH]2)CC1` (stereo not shown) [Compound I-3-38], the Emax on Human AMPK α2β2γ1 is 560%. Regarding `N#Cc1c(O[C@@H]2CO[C@H]3[C@@H]2OC[C@H]3O)[nH]c2ccc(-c3c(F)cc(C4=CCOCC4)cc3F)nc12` [Compound I-3-45], on Human AMPK α2β2γ1, the “EC150 (compound concentration showing 150% relative to the control (100%))” value is on record as 26 nM and the maximum response (Emax) came out at 694%. In the same order, the values of `CC(=O)NC1CC=C(c2ccc(-c3nc4cc(O[C@@H]5CO[C@H]6[C@@H]5OC[C@H]6O)[nH]c4cc3Cl)cc2)CC1` (stereo partly shown) [Compound I-3-46] are 0.48 nM and 750%.

Regarding `CS(=O)(=O)NC1CC=C(c2ccc(-c3nc4cc(O[C@@H]5CO[C@H]6[C@@H]5OC[C@H]6O)[nH]c4cc3Cl)cc2)CC1` (stereo partly shown) [Compound I-3-47], at Human AMPK α2β2γ1, the “EC150 (compound concentration showing 150% relative to the control (100%))” value was determined as 0.76 nM and the Emax came out at 727%. In the same order, the values of `N#Cc1c(O[C@@H]2CO[C@H]3[C@@H]2OC[C@H]3O)[nH]c2ccc(-c3c(F)cc(N4CC[C@@H](O)C4)cc3F)nc12` [Compound I-3-49] are 18 nM and 848%. In the same order, the values of `Cc1ccc(Oc2cc3nc(-c4ccc(N5CCOCC5)cc4)c(Cl)cc3[nH]2)cc1C(=O)O` [Compound I-3-50] are 63 nM and 435%.

One may read the Emax as the size of the effect at its maximum, as opposed to the concentration needed.
